Drawing on patent US11958830B2, “Protease inhibitors, preparation, and uses thereof” (WESTLAKE PHARMACEUTICALS (HANGZHOU) CO., LTD., priority 2021, dated 2024), this text covers IC50 for two molecules.

The IC50 is the concentration that gives 50% inhibition.

For one test, the system named is SARS-CoV-2. Kind of test: microbe, parasite or virus in culture. The test is classed as cell-based. The conditions noted are these: Severe acute respiratory syndrome coronavirus 2, A549, read-out: IC50, anti-SARS-CoV-2 activity in A549 cells.
The next test deals with T1, SARS-CoV-2 3CLpro (Severe acute respiratory syndrome coronavirus 2, UniProt P0DTD1).
T1 construct: made in house; host or cells: E. coli
Kind of test: FRET-based continuous kinetic enzymatic assay of 3CLpro. The class given is biochemical. To be noted: 100 nM 3CLpro, 100 μM fluorogenic substrate, 1 hour pre-incubation, 30° C.; read-out: IC50 against SARS-CoV-2 3CLpro.

SMILES strings stand for the structures.

`CNC(=O)[C@@H](Cc1cccc(F)c1)NC(=O)C1CN(C(=O)c2cncc3cccc(O)c23)CCN1Cc1ccc(Cl)cc1Cl` (stereo partly shown) [Compound 1]: the figures for the half-maximal inhibitory concentration (IC50) in the test on SARS-CoV-2 and at SARS-CoV-2 3CLpro were 848 nM and 165 nM, respectively.
For `CNC(=O)c1cc(Br)cc([N+](=O)[O-])c1N1CC[C@@]2(CN(C(=O)c3cncc4cc(O)ccc34)C[C@@H]2c2ccccc2)C1` [Compound 8], the half-inhibitory concentration (IC50) came out at 38.8 nM in the test on SARS-CoV-2 and 49.5 nM at SARS-CoV-2 3CLpro.
